According to patent US9469645B2, “Compounds and compositions for the treatment of parasitic diseases” (Novartis AG, priority 2009, dated 2016):

How the values were obtained:
[1] = tested on: 3D7 P. falciparum strain; assay: parasite proliferation assay in infected red blood cells (SYBR Green I); assay type: cell-based, Plasmodium falciparum; conditions: Plasmodium falciparum, 3D7, Erythrocyte, 3D7 strain; read-out: EC50 3D7 strain
Method in brief: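 P. falciparum 3D7 grown in O+ human erythrocytes to 3–8% parasitemia and exposed to compounds. Proliferation read as the increase in parasite DNA. Detection used SYBR Green I in saponin/triton-X/EDTA lysis buffer, with overnight lysis at room temperature.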

[2] = tested on: W2 strain; assay: parasite proliferation assay in infected red blood cells (SYBR Green I), W2 strain; assay type: cell-based; conditions: Erythrocyte
Source text: Compounds of the invention can be assayed to measure their capacity to inhibit proliferation of parasitemia in infected red blood cells. The proliferation is quantified by the addition of SYBR Green I (INVITROGEN)® dye which has a high affinity for double stranded DNA.

| SMILES | EC50 [1] [µM] | EC50 ([2]; Plasmodium falciparum) [µM] | EC50 [2] [µM] |
| --- | --- | --- | --- |
| CC1(C)c2nc(-c3ccc(F)cc3)c(Nc3ccc(F)cc3)n2CCN1C(=O)CNC(=O)CCNC(=O)CCc1ccc2oc3ccccc3c2c1 [Compound 729] | > 10 | 6.29 | – |
| CC1(C)c2nc(-c3ccc(F)cc3)c(Nc3ccc(F)cc3)n2CCN1C(=O)CNCCCNC(=O)CCc1ccccc1 [Compound 730, N-(3-(2-(2-(4-fluorophenyl)-3-(4-fluorophenylamino)-8,8-dimethyl-5,6-dihydroimidazo[1,2-a]pyrazin-7 (8H)-yl)-2-oxoethylamino)propyl)-3-phenylpropanamide] | 1.36 | 0.474 | – |
| Cc1ccc(Nc2c(-c3cccnc3)nc3n2CCCC3)cc1 [Compound 737] | 7.85 | 4.09 | – |
| CC(C)(C)CC(C)(C)Nc1c(C2CCCCC2)nc2ccccn12 [Compound 738] | 3.24 | 1.55 | – |
| CC(C)(C)CC(C)(C)Nc1c(C(c2ccccc2)c2ccccc2)nc2ccccn12 [Compound 739] | 0.768 | 0.881 | – |
| CC(C)(C)CC(C)(C)Nc1c(-c2ccccc2-c2cccs2)nc2ccccn12 [Compound 741] | 5.25 | 4.83 | – |
| CC(C)(C)CC(C)(C)Nc1c(-c2ccccc2OC(F)F)nc2ccccn12 [Compound 742] | 6.43 | 11.6 | – |
| CC(C)(C)CC(C)(C)Nc1c(-c2ccccc2Br)nc2ccccn12 [Compound 743] | 2.68 | 3 | – |
| CCN(CC)CCOc1ccccc1-c1nc2ccccn2c1NC(C)(C)CC(C)(C)C [Compound 744] | 5.24 | 2.81 | – |
| CC(C)(C)CC(C)(C)Nc1c(-c2ccccc2C(F)(F)F)nc2ccccn12 [Compound 745] | 3.57 | 4.23 | – |
| CC(C)(C)CC(C)(C)Nc1c(-c2ccccc2OCCO)nc2ccccn12 [Compound 746] | > 10 | 6.94 | – |
| CC(C)(C)CC(C)(C)Nc1c(-c2ccccc2-c2ccco2)nc2ccccn12 [Compound 747] | 2.23 | 4.48 | – |
| Cc1ccc(Nc2c(-c3ccc(F)cc3)nc3ccc(C)cn23)cc1 [Compound 748] | 3.44 | 4.15 | – |
| Fc1ccc(-c2nc3n(c2Nc2ccc(Cl)c(F)c2)CCCC3)cc1 [Compound 749] | 1.05 | 0.814 | – |
| Cc1ccc(Nc2c(-c3ccc(F)cc3)nc3n2CCCC3)cc1 [Compound 750] | 4.77 | 4.96 | – |
| Cc1ccc(Nc2c(-c3ccc(F)cc3)nc3ccccn23)cc1 [Compound 751] | 1.79 | 4.55 | – |
| Cc1ccc2nc(-c3ccc(F)cc3)c(Nc3ccc(Cl)c(F)c3)n2c1 [Compound 752] | 1.62 | 2.38 | – |
| Cc1ccc(Nc2c(-c3ccc(F)cc3)nc3n2CC(C)CC3)cc1 (stereo not shown) [Compound 753] | 0.376 | 0.592 | – |
| CC1CCc2nc(-c3ccc(F)cc3)c(Nc3ccc(Cl)c(F)c3)n2C1 (stereo not shown) [Compound 754] | 0.104 | 0.19 | – |
| NCC(=O)N1CCn2c(nc(-c3ccccc3)c2Nc2ccc3c(c2)OCO3)C1 [Example 1, 2-amino-1-(3-(benzo[d][1,3]dioxol-5-ylamino)-2-phenyl-5,6-dihydroimidazo[1,2-a]pyrazin-7(8H)-yl)ethanone] | 0.46 | – | 0.473 |
| Fc1ccc(Nc2c(-c3ccc(F)cc3)nc3cnccn23)cc1 [Example 26, N,2-bis(4-fluorophenyl)imidazo[1,2-a]pyrazin-3-amine] | > 10 | – | 5.52 |
| Fc1ccc(Nc2c(-c3ccc(F)cc3)nc3n2CCNC3)cc1 [Example 28, N,2-bis(4-fluorophenyl)-5,6,7,8-tetrahydroimidazo[1,2-a]pyrazin-3-amine] | 0.2 | – | 0.175 |
| CNCC(=O)N1CCn2c(nc(-c3ccc(F)cc3)c2Nc2ccc(F)cc2)C1 [Example 32, 1-(2-(4-fluorophenyl)-3-(4-fluorophenylamino)-5,6-dihydroimidazo[1,2-a]pyrazin-7(8H)-yl)-2-(methylamino)ethanone] | 0.21 | – | 0.219 |
